Biological target: T1, P2X7 (UniProt Q99572)
T1 sequence (Q99572 1-595): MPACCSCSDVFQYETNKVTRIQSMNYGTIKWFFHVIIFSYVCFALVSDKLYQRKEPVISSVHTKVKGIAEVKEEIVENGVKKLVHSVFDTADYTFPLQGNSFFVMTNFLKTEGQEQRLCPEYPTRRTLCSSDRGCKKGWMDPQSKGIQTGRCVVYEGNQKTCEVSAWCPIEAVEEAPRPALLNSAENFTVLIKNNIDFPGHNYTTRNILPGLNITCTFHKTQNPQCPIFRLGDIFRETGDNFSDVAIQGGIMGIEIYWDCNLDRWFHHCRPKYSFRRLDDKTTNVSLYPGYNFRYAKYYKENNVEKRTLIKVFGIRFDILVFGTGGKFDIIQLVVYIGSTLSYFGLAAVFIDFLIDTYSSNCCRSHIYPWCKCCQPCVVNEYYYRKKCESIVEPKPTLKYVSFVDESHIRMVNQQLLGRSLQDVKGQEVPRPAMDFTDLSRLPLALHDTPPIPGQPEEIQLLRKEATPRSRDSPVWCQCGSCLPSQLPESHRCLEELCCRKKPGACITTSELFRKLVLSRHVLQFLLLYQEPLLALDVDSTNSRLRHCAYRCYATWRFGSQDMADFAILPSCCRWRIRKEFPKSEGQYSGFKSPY
Experiment: pIC50 values for P2X7 (Table 1)
Assay type: cell-based
Experimental: Intracellular Calcium Flux (FLIPR) Assay
Compound and Reagent Preparation
Stock solutions of compounds were prepared from powders as a 10 mM DMSO stock solution. These solutions were stored at RT during the two week period of these experiments to prevent freeze-thaw of the DMSO stocks. The DMSO stocks were added to the appropriate assay buffer at a concentration of 10 μM, and then diluted serially to the final concentrations that were tested. […] The aqueous solutions of compounds as well as ATP (Sigma A7699) and BzATP (Sigma B6396) were prepared fresh for each day of experiment.
1321N1 cells stably expressing the full length human P2X7 gene (1321N1-hP2X7) and HEK293 cells stably expressing the full length rat P2X7 gene (HEK293-rP2X7) were obtained from the Roche Cell Culture Facility. 1321N1-hP2X7 cells were grown in Dulbecco's Modified Eagle's Medium (DMEM) high glucose supplemented with 10% FBS and 250 μg/mL G418. HEK293-rP2X7 cells were grown in DMEM/F-12 supplemented with 10% FBS, 1 mM CaCl2, 2 mM MgCl2, 2 mM L-Glutamine and 500 μg/ml G418. Cells were split such that they never became >70% confluent.
Intracellular Calcium Flux (FLIPR)
On the day prior to the experiment, 1321N1-hP2X7 or HEK293-rP2X7 cells were released into suspension with calcium-free PBS+Versene and washed by centrifugation with calcium-free PBS to remove the Versene.
On the day of the experiment, plates were washed with FLIPR buffer (calcium- and magnesium-free Hank's Balanced Salt Solution (HBSS) supplemented with 10 mM Hepes, 2.5 mM probenecid and 2 mM calcium chloride) using a BIO-TEK 96 channel plate washer and incubated with […] fluo-3 dye at 37° C. for one hr. The dye was then removed by plate washing and the cells were allowed to equilibrate for 20 min at room temperature with antagonist or vehicle (FLIPR buffer). Agonist (100 μM BzATP final concentration for hP2X7; 5 μM BzATP final concentration or rP2X7) was added online with the FLIPR and fluorescence measurements made at 1 sec intervals for 60 sec followed by 3 sec intervals for a further 4 min (5 min total). A final addition of 5 μM ionomycin was made and the maximal BzATP-evoked fluorescence normalized to the maximal ionomycin-evoked fluorescence.

SMILES | pIC50
COc1cc(NC(=O)N2C=CC(=O)C[C@H]2c2cc(F)cc(F)c2)c(Br)cc1C (stereo in doubt) [Compound 47, 2-(3,5-Difluoro-phenyl)-4-oxo-3,4-dihydro-2H-pyridine-1-carboxylic acid (2-bromo-5-methoxy-4-methyl-phenyl)-amide] | 6.987
COc1cc(Br)c(NC(=O)N2C=CC(=O)CC2c2ccccc2)cc1OC (stereo not shown) [Compound 1, 4-Oxo-2-phenyl-3,4-dihydro-2H-pyridine-1-carboxylic acid (2-bromo-4,5-dimethoxy-phenyl)-amide] | 7.408
COc1cc(NC(=O)N2C=CC(=O)CC2c2ccccc2)c(Br)cc1Cl (stereo not shown) [Compound 2, 4-Oxo-2-phenyl-3,4-dihydro-2H-pyridine-1-carboxylic acid (2-bromo-4-chloro-5-methoxy-phenyl)-amide] | 6.425
COc1cc(Br)c(NC(=O)N2C=CC(=O)C[C@H]2c2ccc(F)cc2)cc1OC [Compound 3, (S)-2-(4-Fluoro-phenyl)-4-oxo-3,4-dihydro-2H-pyridine-1-carboxylic acid (2-bromo-4,5-dimethoxy-phenyl)-amide] | 8.055
COc1cc(NC(=O)N2C=CC(=O)C[C@H]2c2ccccc2)c(Br)cc1Cl [Compound 4, (S)-4-Oxo-2-phenyl-3,4-dihydro-2H-pyridine-1-carboxylic acid (2-bromo-4-chloro-5-methoxy-phenyl)-amide] | 7.476
COc1cc(NC(=O)N2C=CC(=O)C[C@H]2c2ccc(F)cc2)c(Br)cc1Cl [Compound 5, (S)-2-(4-Fluoro-phenyl)-4-oxo-3,4-dihydro-2H-pyridine-1-carboxylic acid (2-bromo-4-chloro-5-methoxy-phenyl)-amide] | 7.4325
COc1cc(NC(=O)N2C=CC(=O)C[C@H]2c2ccc(F)cc2)c(Br)cc1F [Compound 6, (S)-2-(4-Fluoro-phenyl)-4-oxo-3,4-dihydro-2H-pyridine-1-carboxylic acid (2-bromo-4-fluoro-5-methoxy-phenyl)-amide] | 7.5
COc1cc(NC(=O)N2C=CC(=O)C[C@H]2c2ccc(F)cc2)c(Cl)cc1Cl [Compound 7, (S)-2-(4-Fluoro-phenyl)-4-oxo-3,4-dihydro-2H-pyridine-1-carboxylic acid (2,4-dichloro-5-methoxy-phenyl)-amide] | 6.73
COc1cc(NC(=O)N2C=CC(=O)C[C@H]2c2ccc(F)cc2)c(Br)cc1C(F)(F)F [Compound 8, (S)-2-(4-Fluoro-phenyl)-4-oxo-3,4-dihydro-2H-pyridine-1-carboxylic acid (2-bromo-5-methoxy-4-trifluoromethyl-phenyl)-amide] | 6.09
O=C1C=CN(C(=O)Nc2cc(Cl)c(Cl)cc2Br)[C@H](c2ccc(F)cc2)C1 [Compound 9, (S)-2-(4-Fluoro-phenyl)-4-oxo-3,4-dihydro-2H-pyridine-1-carboxylic acid (2-bromo-4,5-dichloro-phenyl)-amide] | 6.11
O=C1C=CN(C(=O)Nc2cc(I)c(Cl)cc2Br)[C@H](c2ccc(F)cc2)C1 [Compound 10, (S)-2-(4-Fluoro-phenyl)-4-oxo-3,4-dihydro-2H-pyridine-1-carboxylic acid (2-bromo-4-chloro-5-iodo-phenyl)-amide] | 6.5175
O=C1C=CN(C(=O)Nc2cc(C(F)(F)F)c(Cl)cc2Br)[C@H](c2ccc(F)cc2)C1 [Compound 11, (S)-2-(4-Fluoro-phenyl)-4-oxo-3,4-dihydro-2H-pyridine-1-carboxylic acid (2-bromo-4-chloro-5-trifluoromethyl-phenyl)-amide] | 6.015
COc1cc(NC(=O)N2C=CC(=O)C[C@H]2c2ccc(F)cc2)c(Br)cc1C [Compound 12, (S)-2-(4-Fluoro-phenyl)-4-oxo-3,4-dihydro-2H-pyridine-1-carboxylic acid (2-bromo-5-methoxy-4-methyl-phenyl)-amide] | 7.873

Reference: patent publication US8153809B2, “Dihydropyridone ureas as P2X7 modulators” (Roche Palo Alto LLC, priority 2008, dated 2012)
